Key:
[1] = molecular target: T1, Cytochrome P450 17A1 (steroid 17-alpha-hydroxylase/17,20 lyase) (Rattus norvegicus, UniProt P11715); assay: Inhibition Cytochrome P450 17A1 of rat testicular microsomes at 2.5 uM with 25 uM progesterone; conditions: probe progesterone (25 uM)
T1 sequence (P11715 whole entry): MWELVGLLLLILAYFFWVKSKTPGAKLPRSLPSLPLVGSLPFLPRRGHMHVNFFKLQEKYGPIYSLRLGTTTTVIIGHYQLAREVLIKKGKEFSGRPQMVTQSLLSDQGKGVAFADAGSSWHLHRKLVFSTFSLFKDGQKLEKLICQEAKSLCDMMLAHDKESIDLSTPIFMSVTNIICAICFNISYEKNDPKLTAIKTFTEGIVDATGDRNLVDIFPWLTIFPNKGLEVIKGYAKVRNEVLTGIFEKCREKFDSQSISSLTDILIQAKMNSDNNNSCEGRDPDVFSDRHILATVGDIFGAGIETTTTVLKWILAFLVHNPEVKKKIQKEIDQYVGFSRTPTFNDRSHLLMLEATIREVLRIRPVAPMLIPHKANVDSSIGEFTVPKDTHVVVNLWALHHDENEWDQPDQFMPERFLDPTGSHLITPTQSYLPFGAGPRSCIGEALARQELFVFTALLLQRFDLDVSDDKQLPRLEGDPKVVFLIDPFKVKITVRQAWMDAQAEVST

Aromatase [2] = molecular target: T2, Aromatase (Homo sapiens, UniProt P11511)
T2 sequence (P11511 whole entry): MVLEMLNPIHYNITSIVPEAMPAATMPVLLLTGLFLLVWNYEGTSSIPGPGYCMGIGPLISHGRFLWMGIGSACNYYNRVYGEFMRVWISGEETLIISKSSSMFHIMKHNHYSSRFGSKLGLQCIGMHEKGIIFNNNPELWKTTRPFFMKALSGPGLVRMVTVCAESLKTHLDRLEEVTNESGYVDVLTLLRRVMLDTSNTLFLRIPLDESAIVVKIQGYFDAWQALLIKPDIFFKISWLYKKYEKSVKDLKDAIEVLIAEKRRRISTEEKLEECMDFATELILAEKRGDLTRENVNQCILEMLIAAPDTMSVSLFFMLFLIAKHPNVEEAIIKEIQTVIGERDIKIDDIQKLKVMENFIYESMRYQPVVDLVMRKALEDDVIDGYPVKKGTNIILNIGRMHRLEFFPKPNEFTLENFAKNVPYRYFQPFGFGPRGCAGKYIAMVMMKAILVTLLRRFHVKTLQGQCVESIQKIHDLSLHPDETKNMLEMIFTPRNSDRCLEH
Description: Inhibition of cytochrome P450 19A1 of human placental microsomes with [1-beta,2beta-3H]testosterone

Aromatase [3] = molecular target: T2, Aromatase; assay: In vitro inhibition of cytochrome P450 19A1 from human placental microsomes with 2.5 uM [1-beta,2beta-3H]testosterone
Aromatase [4] = molecular target: T2, Aromatase; assay: Relative potency as IC50 compared to aminoglutethimide IC50=[…] uM

Row | SMILES | inhibition at 2.5 µM [1] [%] | IC50 (Aromatase [2]) [nM] | IC50 (Aromatase [3]) [nM] | Relative potency (Aromatase [4])
1 | CCn1ccc2cccc(C(c3ccc(Br)cc3)n3ccnc3)c21 (stereo unspecified) | 29 | 70 |  | 
2 | CCn1ccc2cc(Br)cc(C(c3ccc(F)cc3)n3ccnc3)c21 (stereo unspecified) | 9 | 200 |  | 
3 | CCN1CCc2cc(Cl)cc(C(c3ccc(F)cc3)n3ccnc3)c21 (stereo unspecified) | 23 |  |  | 
4 | CCn1ccc2cccc(C(c3ccc(F)cc3)n3ccnc3)c21 (stereo unspecified) | 37 | 62 |  | 
5 | CCN1CCc2cccc(C(c3cccc(Cl)c3)n3ccnc3)c21 (stereo unspecified) | 38 |  |  | 

The next lines start with the values.

Row | inhibition at 2.5 µM [1] [%] | IC50 (Aromatase [2]) [nM] | IC50 (Aromatase [3]) [nM] | Relative potency (Aromatase [4]) | SMILES
6 | 29 |  |  |  | CCn1ccc2cccc(C(c3ccc(Cl)cc3)n3ccnc3)c21 (stereo unspecified)
7 | 37 |  | 61.5 |  | CCN1CCc2cccc(C(c3ccc(F)cc3)n3ccnc3)c21 (stereo unspecified)
8 | 8 | 90 |  |  | CCN1CCc2cc(Br)cc(C(c3ccc(F)cc3)n3ccnc3)c21 (stereo unspecified)
9 | 43 |  |  |  | CCn1ccc2cccc(C(c3cccc(Cl)c3)n3ccnc3)c21 (stereo unspecified)
10 |  | 2900 |  | 10 | CCN1CCc2cccc(C(c3ccc(F)cc3)n3cncn3)c21 (stereo unspecified)
